From patent US9011853B2, “B7-H4 fusion proteins and methods of use thereof” (Amplimmune, Inc., priority 2009, dated 2015)

Key:
CD4^+CD25^− T cells = experiment: Enteroantigen specific CD4+CD25- proliferation assay with cells from treated mice; assay type: in vivo, mouse; settings: Balb/c mice
Method: Extracts were prepared by removing the colon and cecum from mice and placing the content in PBS. This was sonicated 3 times for 30 seconds on ice, followed by centrifugation at 10,000 g for 10 min to remove insoluble material. The supernatant was collected, sterile filtered, and stored at −60° C. The protein concentration in the supernatants was typically 1 to 1.5 mg/mL as determined by the bicinchoninic acid (BCA) method.
Female wild-type Balb/c, 7 to 9 weeks of age, were injected with either 60 μg or 300 μg of B7-H4-Ig, intraperitoneally (IP), 3 times a week for 2 weeks. There were 5 mice in each group. B7-H4-Ig treated mice and also naïve control mice were euthanized for T cell isolation after 2 week treatment.
The CD4^+CD25^− T cells were obtained as follows: CD4^+ T cells were positively selected from spleen single-cell suspensions using a mouse anti-CD4 monoclonal antibody-coated DYNABEAD® and the DETACHABEAD® system (Dynal AS, Oslo, Norway) according to the manufacturer's instructions. Then the CD4^+ T cells ([…] assessed by flow cytometry) were separated into CD25^+ and CD25^− T cell populations by Miltenyi's magnetic bead technology (MACS®, Miltenyi Biotech, Belgisch Gladbach, Germany) using PE-labeled anti-CD25 monoclonal antibody, followed by the addition of anti-PE microbeads and depletion according to the manufacturer's instructions. […]

CTLA4KD/BDC2.5/NOD mice = experiment: Autoimmune diabetes in CTLA4KD/BDC2.5/NOD mice; assay type: in vivo, mouse
Method: CTLA4 KD/NOD mice (Chen, et al., PNAS (2006)) were bred with BDC2.5 TCR transgenic mice (Katz, et al., Cell, 74(6):1089-100 (1993)). Both female and male mice at age of 11 weeks were randomly assigned into experimental groups: vehicle (3 mice), and B7-H4-Ig (5 mice). Mice were treated with B7-H4-Ig 3 times per week for 4 weeks (15 mg/kg, per i.p. injection), and monitored 3 times per week for glucose content in the urine first with Diastix. […] Diabetes was determined when blood glucose reached ≧600 mg/dL.

[1] = test system: naïve CD4^+CD62L^+ T cells; experiment: In vitro Th2 polarization, proliferation; assay type: cell-based, mouse; settings: Th2 conditions: IL-2, IL-4, anti-IL12 and anti-IFN-γ (FIG. 23)
Description: B7-H4-Ig has no impact on Th2 cells using the same target, naïve CD4^+CD62L^+ T cells, under Th2 in vitro polarization conditions: IL-2, IL-4, anti-IL12 and anti-IFN-γ (FIG. 23).

B7-H4-Ig: B7-H4 extracellular domain fused to Ig Fc; bare label is the human protein in Example 3, murine protein in Examples 1, 2, 5, 7-11
enteroantigen specific CD4+CD25− T effector cell response (CD4^+CD25^− T cells; 60 μg or 300 μg IP 3 times a week for 2 weeks (FIG. 52)): barely affected | Tregs from treated mice: blocking of enteroantigen priming and T cell proliferation (CD4^+CD25^− T cells; 60 μg or 300 μg IP 3 times a week for 2 weeks, vs Tregs from control mice (FIG. 51)): more potent in blocking enteroantigen priming and T cell proliferation | autoimmune diabetes (blood glucose ≧600 mg/dL) (CTLA4KD/BDC2.5/NOD mice; 15 mg/kg i.p. 3 times per week for 4 weeks from age 11 weeks (FIG. 50)): delayed autoimmune diabetes | age until which treated mice did not develop diabetes (CTLA4KD/BDC2.5/NOD mice; 15 mg/kg i.p. 3 times per week for 4 weeks from age 11 weeks, 10 weeks post treatment): 21 weeks old | impact on Th2 cells (proliferation) [1]: no impact
